Molecules are shown by their SMILES. In brackets after ≈: the same amount, converted by molar mass.

Assay type in all cases: functional
The subject of one assay is DU-145. Briefly: Cytotoxicity against human DU145 cells after 6 days by MTT assay. The note with it: DU-145, 144 h, read-out: ED50 (the source's name). A general note: Tetrazolium dyes change colour on reduction, which living cells bring about.
Assay [1] can be described thus: Cytotoxicity against human Hs 742.T cells after 6 days by MTT assay. To be noted: 144 h, read-out: ED50 (the source's name).
The nature of assay [2]: Cytotoxicity against human Hs 740.T cells after 6 days by MTT assay. To be noted: 144 h, read-out: ED50 (the source's name).
The nature of assay [3]: Cytotoxicity against human Hs 578T cells after 6 days by MTT assay. The note with it: 144 h, read-out: ED50 (the source's name).
Assay [4] in a line: Cytotoxicity against human LNCaP-FGC cells after 6 days by MTT assay. The note with it: LNCaP-Clone-FGC, 144 h, read-out: ED50 (the source's name).
Assay [5] is described as follows: Cytotoxicity against human Hs 746T cells after 6 days by MTT assay. The note with it: Hs746T, 144 h, read-out: ED50 (the source's name).

As for `CC1(C)C[C@@H](O)[C@]2(C)CC[C@]3(C)C(=CC[C@@H]4[C@@]5(C)CC[C@H](O[C@@H]6O[C@H](C(=O)O)[C@@H](O)[C@H](O)[C@H]6O)[C@@](C)(CO)[C@@H]5CC[C@]43C)[C@@H]2C1` [3-O-[BETA-D-GLUCURONOPYRANOSYL]SOYASAPOGENOL B], the EC50 in the assay with DU-145 amounted to 9.13 µg/mL (≈ 14.4 µM); in assay [1] it was 28.7 µg/mL (≈ 45.2 µM); in assay [2], 9.61 µg/mL (≈ 15.1 µM); in assay [3], 8.77 µg/mL (≈ 13.8 µM); in assay [4], 37.3 µg/mL (≈ 58.7 µM); in assay [5] it was 9.59 µg/mL (≈ 15.1 µM).

As to `O=C1c2ccc(O[C@@H]3O[C@H](CO)[C@@H](O)[C@H](O)[C@H]3O)cc2OCC1c1ccc(O)cc1` (stereo partly drawn) [DIHYDRODAIDZIN], the EC50 was found to be 9.16 µg/mL (≈ 21.9 µM) in the assay with DU-145; 33.6 µg/mL (≈ 80.2 µM) in assay [1]; 17.4 µg/mL (≈ 41.5 µM) in assay [2]; 28.2 µg/mL (≈ 67.5 µM) in assay [3]; 32.5 µg/mL (≈ 77.6 µM) in assay [4]; 14.9 µg/mL (≈ 35.7 µM) in assay [5].

Consider `C[C@@H]1O[C@@H](O[C@H]2[C@H](O[C@H]3[C@H](O[C@H]4CC[C@@]5(C)[C@@H](CC[C@]6(C)[C@@H]5CC=C5[C@@H]7CC(C)(C)C[C@@H](O[C@@H]8O[C@H](CO)[C@@H](O)[C@H](O)[C@H]8O[C@@H]8O[C@@H](C)[C@H](O)[C@@H](O)[C@H]8O)[C@]7(C)CC[C@]56C)[C@]4(C)CO)O[C@H](C(=O)O)[C@@H](O)[C@@H]3O)O[C@H](CO)[C@H](O)[C@@H]2O)[C@H](O)[C@H](O)[C@H]1O`, for which the EC50 came out at 3.25 µg/mL (≈ 2.6 µM) in the assay on DU-145; 14.6 µg/mL (≈ 11.7 µM) in assay [1]; 4.1 µg/mL (≈ 3.28 µM) in assay [2]; 2.12 µg/mL (≈ 1.69 µM) in assay [3]; 24.1 µg/mL (≈ 19.3 µM) in assay [4]; 3.94 µg/mL (≈ 3.15 µM) in assay [5].

Take `O=C1c2c(O)cc(O[C@@H]3O[C@H](CO)[C@@H](O)[C@H](O)[C@H]3O)cc2OCC1c1ccc(O)cc1` (stereo partly drawn) [DIHYDROGENISTIN]: the EC50 in the assay on DU-145 worked out at 10.2 µg/mL (≈ 23.6 µM); in assay [1] it was 30.8 µg/mL (≈ 70.9 µM); in assay [2], 15.1 µg/mL (≈ 34.8 µM); in assay [3], 15.4 µg/mL (≈ 35.4 µM); in assay [4], 41.6 µg/mL (≈ 95.7 µM); in assay [5], 12.2 µg/mL (≈ 28.2 µM).

Take `CC1(C)C[C@@H](O)[C@]2(C)CC[C@]3(C)C(=CC[C@@H]4[C@@]5(C)CC[C@H](O[C@@H]6O[C@H](C(=O)O)[C@@H](O)[C@H](O)[C@H]6O[C@@H]6O[C@H](CO)[C@H](O)[C@H](O)[C@H]6O[C@@H]6O[C@H](CO)[C@@H](O)[C@H](O)[C@H]6O)[C@@](C)(CO)[C@@H]5CC[C@]43C)[C@@H]2C1` [3-O-[BETA-DGLUCOPYRANOSYL-(1->2)-BETA-D-GALACTOPYRANOSYL(1->2)-BETA-DGLUCURONOPYRANOSYL]SOYASAPOGENOL B]: the EC50 in the assay on DU-145 worked out at 5.75 µg/mL (≈ 5.99 µM); in assay [1] it was 31.6 µg/mL (≈ 32.9 µM); in assay [2], 8.97 µg/mL (≈ 9.35 µM); in assay [3], 9.87 µg/mL (≈ 10.3 µM); in assay [4], 40.7 µg/mL (≈ 42.4 µM); in assay [5], 7.36 µg/mL (≈ 7.67 µM).

Consider `COc1ccc(-c2coc3cc(O[C@@H]4O[C@H](COC(C)=O)[C@@H](O)[C@H](O)[C@H]4OC(C)=O)ccc3c2=O)cc1`, for which the EC50 with DU-145 is 4.18 µg/mL (≈ 8.12 µM); in assay [1], 25.5 µg/mL (≈ 49.6 µM); in assay [2], 7.61 µg/mL (≈ 14.8 µM); in assay [3] it was 5.44 µg/mL (≈ 10.6 µM); in assay [4], 22.1 µg/mL (≈ 43 µM); in assay [5], 8.89 µg/mL (≈ 17.3 µM).

With `C[C@@H]1O[C@@H](O[C@H]2[C@H](O[C@@H]3CC(C)(C)C[C@H]4C5=CC[C@@H]6[C@@]7(C)CC[C@H](O[C@@H]8O[C@H](C(=O)O)[C@@H](O)[C@H](O)[C@H]8O[C@@H]8O[C@H](CO)[C@H](O)[C@H](O)[C@H]8O[C@@H]8O[C@@H](C)[C@H](O)[C@@H](O)[C@H]8O)[C@@](C)(CO)[C@@H]7CC[C@@]6(C)[C@]5(C)CC[C@@]34C)OC[C@H](O)[C@@H]2O)[C@H](O)[C@H](O)[C@H]1O`, the EC50 was determined as 3.12 µg/mL (≈ 2.55 µM) with DU-145; 17.5 µg/mL (≈ 14.3 µM) in assay [1]; 3.53 µg/mL (≈ 2.89 µM) in assay [2]; 2.39 µg/mL (≈ 1.96 µM) in assay [3]; 27.5 µg/mL (≈ 22.5 µM) in assay [4]; 2.47 µg/mL (≈ 2.02 µM) in assay [5].

For the molecule `O=c1c(-c2ccc(O)cc2)coc2cc(O)cc(O)c12` [GENISTEIN], the EC50 with DU-145 amounted to 2.39 µg/mL (≈ 8.84 µM); in assay [1], 14.9 µg/mL (≈ 55.1 µM); in assay [2], 4.38 µg/mL (≈ 16.2 µM); in assay [3], 3.5 µg/mL (≈ 13 µM); in assay [4], 25.4 µg/mL (≈ 94.2 µM); in assay [5], 5.82 µg/mL (≈ 21.5 µM).

The record behind these values is ChEMBL document CHEMBL1150583, “New isoflavone and triterpene glycosides from soybeans” (2002).
